Assay results taken from patent US20250250265A1, “BENZOTHIAZOLE-PHENYLSULFONYL-PIPERIDINE ANALOGS AS ACTIVATORS OF NACYLPHOSPHATIDYLETHANOLAMINE HYDROLYZING PHOSPHOLIPASE D” (priority 2022, published 2025).
Entries after “also recorded” stand apart in the source; their conditions may differ.

Experiments:
[1] = target: T1, recombinant mouse NAPE-PLD (Mus musculus, UniProt Q8BH82); test: In vitro competition assay (LEI-401, VU233, VU534) on recombinant mouse Nape-pld; type: biochemical
T1 construct: hexahistidine (His6) (C); made in house; host or cells: E. coli
T1 sequence (Q8BH82 1-396): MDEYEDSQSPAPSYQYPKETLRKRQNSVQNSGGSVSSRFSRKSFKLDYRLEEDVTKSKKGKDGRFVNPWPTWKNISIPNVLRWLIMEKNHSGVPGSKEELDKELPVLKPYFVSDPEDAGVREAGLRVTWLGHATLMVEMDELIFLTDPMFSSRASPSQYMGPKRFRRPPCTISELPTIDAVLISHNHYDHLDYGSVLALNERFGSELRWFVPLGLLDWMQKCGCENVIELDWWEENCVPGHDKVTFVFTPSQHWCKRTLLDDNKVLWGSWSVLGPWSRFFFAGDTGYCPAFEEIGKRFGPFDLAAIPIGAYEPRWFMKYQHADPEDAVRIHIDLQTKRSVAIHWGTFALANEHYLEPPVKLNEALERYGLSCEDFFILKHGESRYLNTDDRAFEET
Experimental: (§1) A similar in vitro fluorescence Nape-pld activity assay was used for LEI-401 and VU233 competition assays except that this assay was performed using black-walled clear-bottom 96-well plates with 3.5 μM PED-A1 and no N-palmitoyl-dioleoyl-PE used as substrate and read in a BioTek Synergy H1 plate reader with the slope of the fluorescence signal from 0-4 min (linear phase) used as the assay readout. LEI-401, VU233, and VU534 were incubated for 1 h prior to addition of PED-A1. The Michaelis-Menten study used this same assay except with graded concentration of flame-NAPE.

[2] = target: T1, recombinant mouse NAPE-PLD; test: LC/MS NAPE-PLD assay with N-oleoyl-phosphatidylethanolamine (NOPE) as substrate; type: biochemical; details: NOPE 90 min (FIG. 19A)
Experimental: For LC/MS assays, N-oleoyl-PE was added as substrate after […] pre-incubation with compound VU534, VU533, VU233 or vehicle. 90 min after N-oleoyl-PE was added, the reaction was quenched by adding 3 volumes of ice-cold methanol containing [^2H4]OEA and [^2H4]N-palmitoyl-PE and then 6 volumes of ice-cold chloroform.33 The lower phase was dried under nitrogen gas and dissolved in 100 μL mobile phase A. High performance liquid chromatography was performed using a 2.1 mm C18 guard column (Phenomenex AJ0-8782), and a rapid gradient ramp. Mobile phase A was 5:1:4 (v/v/v) isopropanol: methanol: water, with 0.2% v/v formic acid, 0.66 mM ammonium formate and 3 μM phosphoric acid included as additives. Mobile phase B was 0.2% (v/v) formic acid in isopropanol. Initial column conditions were 5% mobile phase B, followed by gradient ramp to 95% B over 0.5 min, held at 95% B for 2 min, the returned to initial conditions (5% B) over 1 min. Flow rate throughout was 100 μL/min. Injection volume was 2 μL. The sample injector needle was washed before each injection using a strong wash of methanol, and a weak wash of 1:1:1:1 (v/v/v/V) isopropanol: methanol: acetonitrile: water, with 0.2% formic acid, 0.3 mM ammonium formate, and 0.37 mM phosphoric acid included as additives. Multiple reaction monitoring for the following ions were monitored: OEA [M+H]^+: m/z 326.3→m/z 62.1; [^2H4]OEA [M+H]^+: m/z 330.3→m/z 66.1; N-oleoyl-PE [M+NH4]^+: m/z 693.5→m/z 308.3 (quantifier), m/z 693.5→m/z 271.2 (qualifier); [^2H4]N-palmitoyl-PE [M+NH4]^+: m/z 1003.8→m/z 286.3 (quantifier), m/z 1003.8→m/z 603.5 (qualifier). […]
To confirm the results of the fluorescence-based assays, an orthogonal biochemical Nape-pld assay based on LC/MS was employed. Recombinant mouse NAPE-PLD was pre-treated with VU534, VU533, VU233 or vehicle for 30 min, then N-oleoyl-phosphatidylethanolamine (NOPE) was added for 90 min, and the resulting levels of OEA and NOPE was measured by LC/MS. […]

[3] = target: T1, recombinant mouse NAPE-PLD; test: Michaelis-Menten analysis with flame-NAPE as substrate; type: biochemical
Experimental: To further understand this effect, a 50-nanosecond molecular dynamic (MD) simulation was performed using AMBER17. The PDQ9:VU534 complex was prepped for simulation using CHARMM-GUI and ff14SB, TIP3P, GAFF2 force fields were employed for proteins, […] molecules, respectively. This simulation predicted that VU534 binding to the interface pocket allosterically alters the catalytic site conformation including reorienting the zinc-hydroxide-zinc complex parallel to the substrate (FIG. 11), consistent with the measured increased kcat.
as §1
To confirm the results of the fluorescence-based assays, an orthogonal biochemical Nape-pld assay based on LC/MS was employed. Recombinant mouse NAPE-PLD was pre-treated with VU534, VU533, VU233 or vehicle for 30 min, then N-oleoyl-phosphatidylethanolamine (NOPE) was added for 90 min, and the resulting levels of OEA and NOPE was measured by LC/MS. […] To further characterize the effect of VU534 on NAPE-PLD activity, a Michaelis-Menten analysis was performed using recombinant mouse NAPE-PLD and graded concentrations of flame-NAPE, a selective NAPE-PLD fluorogenic substrate resistant to competing esterase activity.

[4] = target: T2, NAPE-PLD activity in primary BMDMϕ (Mus musculus, UniProt Q8BH82); test: NAPE-PLD activity in primary bone marrow derived macrophages; type: cell-based; details: VU534 at 10 μM (FIG. 5)
T2 construct: endogenous in cells; host or cells: primary bone-marrow-derived macrophages (C57BL6/j mice)
T2 sequence (Q8BH82 1-396): T1 sequence (Q8BH82 1-396)

Row | SMILES | effect on enzyme activation by 5 μM VU534 ([1]; graded concentrations with 5 μM VU534 (FIG. 19C)) | effect on OEA/NOPE ratio [2] | effect on catalytic rate (kcat) of NAPE-PLD ([3]; Example 9, FIG. 10) | K1/2 of NAPE-PLD ([3]; with VU534 (vehicle 12.4 μM), flame-NAPE) | maximal velocity of NAPE-PLD ([3]; with VU534 (vehicle 227 RFU/min), flame-NAPE) | increase of Nape-pld activity ([1]; 5 μM, in the absence of LEI-401) | effect on NAPE-PLD activity in primary BMDM [4]
1 | O=C(Nc1nc2ccccc2s1)C1CCN(S(=O)(=O)c2ccc(F)c(Cl)c2)CC1 [VU233] | suppress the enzyme activation of 5 μM VU534 in a concentration-dependent manner | no significant effect | – | – | – | – | –
2 | Cc1cc(C)c2sc(NC(=O)C3CCN(S(=O)(=O)c4ccc(F)cc4)CC3)nc2c1 [VU534, N-(5,7-Dimethylbenzo[d]thiazol-2-yl)-1-((4-fluorophenyl)sulfonyl)piperidine-4-carboxamide] | – | significantly increased the OEA/NOPE ratio | enhanced kcat (turnover number) without reducing the Michaelis-Menten constant, Km; also recorded: increases the catalytic rate | 5.9 µM | 421 RFU/min | 1.5 fold | increases NAPE-PLD activity
3 | Cc1ccc(C)c2sc(NC(=O)C3CCN(S(=O)(=O)c4ccc(F)cc4)CC3)nc12 [VU533] | – | significantly increased the OEA/NOPE ratio | – | – | – | – | –
